# Key:
# [1] = system: HCT116 p53^+/+ parental cells; test: MTT cytotoxicity assay, HCT116 p53^+/+ parental cells; format: cell-based, human; settings: HCT116 p53^+/+ parental, 72 h, read-out: IC50(72 h)
# Experimental: (§1) Tissue culture. HCT116 p53^+/+ and p53^−/− isogenic human colon cancer cells were kindly provided by Professor Bert Vogelstein (John Hopkins University, Baltimore, Md.). Drug-resistant HCT116 sub-lines were developed in the inventors' laboratory by repeated exposure to stepwise increasing concentrations of 5-FU, CPT-11 or oxaliplatin over a period of approximately ten months. Parental and drug-resistant HCT116 cell lines were grown in McCoy's 5A medium supplemented with 10% dialysed foetal calf serum (FCS), 50 μg/ml penicillin-streptomycin, 2 mM L-glutamine and 1 mM sodium pyruvate (all from GIBCO Invitrogen Corporation, Paisley, Scotland) and maintained at 37° C. in a humidified atmosphere containing 5% CO2. 5-FU-resistant p53^+/+ and p53^−/− HCT116 cells were maintained in the presence of 2 μM and 4 μM 5-FU respectively. CPT-11-resistant p53^+/+ and p53^−/− HCT116 cells were maintained in the presence of 1 μM and 3 μM CPT-11 respectively. […] Prior to each experiment, resistant sub-lines were cultured in the absence of drug for 48 hours.
# (§2) Cytotoxicity studies. Cells were seeded at 2000 cells per well in 96-well microtiter plates. After 48 hours, cells were treated with a range of concentrations of 5-FU, CPT-11 or oxaliplatin.
# (§3) After 72 hours, 25 μl of MTT dye (5 mg/ml) was added to each well and the plates were incubated at 37° C. for 3 hours. Dark-blue formazan crystals formed by live cells were dissolved in 200 μl of DMSO and absorbance in individual wells was determined at 570 nm using an Emax precision microplate reader (Molecular Devices, Sunnyvale, Calif.).
# [2] = system: p53^+/+ 5-FU-resistant HCT116 cells; test: MTT cytotoxicity assay, p53^+/+ 5-FU-resistant HCT116 cells; format: cell-based, human
# Experimental: (§4) Tissue culture. HCT116 p53^+/+ and p53^−/− isogenic human colon cancer cells were kindly provided by Professor Bert Vogelstein (John Hopkins University, Baltimore, Md.). […] Parental and drug-resistant HCT116 cell lines were grown in McCoy's 5A medium supplemented with 10% dialysed foetal calf serum (FCS), 50 μg/ml penicillin-streptomycin, 2 mM L-glutamine and 1 mM sodium pyruvate (all from GIBCO Invitrogen Corporation, Paisley, Scotland) and maintained at 37° C. in a humidified atmosphere containing 5% CO2. 5-FU-resistant p53^+/+ and p53^−/− HCT116 cells were maintained in the presence of 2 μM and 4 μM 5-FU respectively. […] Prior to each experiment, resistant sub-lines were cultured in the absence of drug for 48 hours.
# [3] = system: p53^+/+ oxaliplatin-resistant HCT116 cells; test: MTT cytotoxicity assay, p53^+/+ oxaliplatin-resistant HCT116 cells; format: cell-based, human; settings: p53^+/+ oxaliplatin-resistant, MTT, 72 h; read-out: IC50(72 h)
# Experimental: as §1, §2, §3
# [4] = system: p53^+/+ CPT-11-resistant HCT116 cells; test: MTT cytotoxicity assay, p53^+/+ CPT-11-resistant HCT116 cells; format: cell-based, human; settings: p53^+/+ CPT-11-resistant, MTT, 72 h; read-out: IC50(72 h)
# Experimental: as §4
# [5] = system: HCT116 p53^−/− parental cells; test: MTT cytotoxicity assay, HCT116 p53^−/− parental cells; format: cell-based, human
# Experimental: as §1, §2, §3
# [6] = system: p53^−/− 5-FU-resistant HCT116 cells; test: MTT cytotoxicity assay, p53^−/− 5-FU-resistant HCT116 cells; format: cell-based, human
# Experimental: as §4
# [7] = system: p53^−/− oxaliplatin-resistant HCT116 cells; test: MTT cytotoxicity assay, p53^−/− oxaliplatin-resistant HCT116 cells; format: cell-based, human; settings: p53^−/− oxaliplatin-resistant, MTT, 72 h; read-out: IC50(72 h)
# Experimental: as §1, §2, §3
# [8] = system: p53^−/− CPT-11-resistant HCT116 cells; test: MTT cytotoxicity assay, p53^−/− CPT-11-resistant HCT116 cells; format: cell-based, human
# Experimental: as §4
# [9] = system: p53^+/+ HCT116 parental cells; test: Flow cytometry cell cycle/apoptosis, p53^+/+ HCT116 parental cells; format: cell-based, human; settings: 72 hours
# Experimental: (§5) Parental and drug-resistant HCT116 cell lines were grown in McCoy's 5A medium supplemented with 10% dialysed foetal calf serum (FCS), 50 μg/ml penicillin-streptomycin, 2 mM L-glutamine and 1 mM sodium pyruvate (all from GIBCO Invitrogen Corporation, Paisley, Scotland) and maintained at 37° C. in a humidified atmosphere containing 5% CO2. 5-FU-resistant p53^+/+ and p53^−/− HCT116 cells were maintained in the presence of 2 μM and 4 μM 5-FU respectively. […] Prior to each experiment, resistant sub-lines were cultured in the absence of drug for 48 hours.
# (§6) Flow cytometry. Cells were seeded at 5×10^4 cells per well in 6-well plates. […] Seventy-two hours post-treatment, cells were harvested in 5 ml of 1× PBS/0.5 mM EDTA and pelleted by centrifugation at 1000 rpm/4° C. for 5 minutes. Cell pellets were washed once with 1× PBS/1% FCS, fixed in 70% ethanol and stained with propidium iodide. Analyses were performed on a Beckman Coulter Epics XL flow cytometer (Miami, Fla.).
# [10] = system: p53^+/+ 5-FU-resistant HCT116 cells; test: Flow cytometry cell cycle/apoptosis, p53^+/+ 5-FU-resistant cells; format: cell-based, human; settings: 72 hours
# Experimental: as §5, §6
# [11] = system: p53^−/− HCT116 parental cells; test: Flow cytometry cell cycle/apoptosis, p53^−/− HCT116 parental cells; format: cell-based, human; settings: 72 hours
# Experimental: as §5, §6
# [12] = system: p53^−/− 5-FU-resistant HCT116 cells; test: Flow cytometry cell cycle/apoptosis, p53^−/− 5-FU-resistant cells; format: cell-based, human; settings: 1 μM, 5 μM and 10 μM, relative to untreated control cells
# Experimental: as §1
# Flow cytometry. Cells were seeded at 5×10^4 cells per well in 6-well plates. After 48 hours, cells were treated with a range of concentrations of 5-FU, CPT-11 or oxaliplatin. Seventy-two hours post-treatment, cells were harvested in 5 ml of 1× PBS/0.5 mM EDTA and pelleted by centrifugation at 1000 rpm/4° C. for 5 minutes. […]
# [13] = system: p53^−/− CPT-11-resistant HCT116 cells; test: Flow cytometry cell cycle/apoptosis, p53^−/− CPT-11-resistant cells; format: cell-based, human; settings: p53^−/− CPT-11-resistant cell line, data not shown
# p53^+/+ HCT116 cells = test: PARP cleavage immunoblotting, p53^+/+ HCT116 cells; format: cell-based, human; settings: 5 μM, 48 hours, Western blot
# Experimental: (§7) Immunoblotting. Cells, were seeded at 1×10^6 cells per plate in 90 mm tissue culture dishes. […] After 48 hours, cells were harvested and resuspended in 200 μl of 1× RIPA buffer (20 mM TRIS pH7.4, 150 mM NaCl, 1 mM EDTA pH8.0, 1% Triton X-100, 0.1% SDS). Cells were lysed and centrifuged at 13,200 rpm/4° C. for 15 minutes to remove cell debris.
# (§8) Protein concentrations were determined using the BCA protein assay reagent (Pierce, Rockford, Ill.). Twenty micrograms of each protein sample were resolved by SDS-PAGE and transferred to a PVDF membrane by electroblotting. Immunodetection was performed using anti-PARP or anti-β-tubulin mouse monoclonal antibodies and a 1/2000 dilution of a horseradish peroxidase-conjugated sheep anti-mouse secondary antibody (Amersham, Buckinghamshire, England). The fluorescent signal was detected using the Super Signal chemiluminescent detection system (Pierce) according to the manufacturer's instructions.
# p53^−/− HCT116 cells = test: PARP cleavage immunoblotting, p53^−/− HCT116 cells; format: cell-based, human; settings: 5 μM, 48 hours, Western blot
# Experimental: as §7, §8
# resected stage III CRC = settings: adjuvant 5-FU-based chemotherapy, patients with resected stage III CRC; cited from earlier work
# advanced CRC = settings: monotherapy; cited from earlier work
smiles,measurement,setting,value
O=c1[nH]cc(F)c(=O)[nH]1 [5-FU],IC50,[1],4.3 µM
same,increase in IC50 (72 hr) compared to parental cells,[2]; p53^+/+ 5-FU-resistant vs p53^+/+ parental,3.0 fold
same,IC50,"[2]; p53^+/+ 5-FU-resistant, MTT, 72 h, read-out: IC50(72 h)",12.7 µM
same,IC50,[3],3.6 µM
same,IC50,[4],4.2 µM
same,IC50,"[5]; HCT116 p53^−/− parental, MTT, 72 h, read-out: IC50(72 h)",19.7 µM
same,increase in IC50 (72 h) dose in p53^−/− compared to p53^+/+ cells,[5]; parental HCT116 p53^−/− vs p53^+/+,4.6 fold
same,increase in IC50 (72 hr) compared to parental cells,[6]; p53^−/− 5-FU-resistant vs p53^−/− parental,9.0 fold
same,IC50,"[6]; p53^−/− 5-FU-resistant, MTT, 72 h, read-out: IC50(72 h)",178 µM
same,IC50,[7],22 µM
same,increase in IC50 (72 hr) compared to parental cells,[8]; p53^−/− CPT-11-resistant vs p53^−/− parental,~2 fold
same,IC50,"[8]; p53^−/− CPT-11-resistant, MTT, 72 h, read-out: IC50(72 h)",47 µM
same,cell cycle distribution,[9]; 1 μM,S-phase arrest and evidence of polyploidy
same,cell cycle distribution,[9]; 5 μM and 10 μM,arrested in G2/M-phase
same,sub-G0/G1 content,"[9]; 5 μM and 10 μM, ~4% in control samples",30-35%
same,cell cycle distribution,[10]; 1 μM,no change in cell cycle profile
same,cell cycle distribution,[10]; 5 μM and 10 μM,majority of cells had arrested at the G1/S boundary
same,induction of apoptosis compared to parental cells,[10]; 5 μM and 10 μM,significantly reduced
same,cell cycle distribution,[11]; 1 μM,arrested in S-phase
same,cell cycle distribution,[11]; 5 μM and 10 μM,majority of p53^−/− parental cells had DNA content >4N
same,drug-induced apoptosis in p53^−/− compared to p53^+/+ parental cells,[11]; range of concentrations,significantly less apoptosis
same,cell cycle distribution,[12],no change in cell cycle profile
same,cross-resistance examined using cell cycle analyses,[13],no evidence of cross-resistance
same,PARP cleavage,p53^+/+ HCT116 cells,observed
same,PARP cleavage,p53^−/− HCT116 cells,not
same,improvement of disease-free survival,resected stage III CRC,35%
same,improvement of overall survival,resected stage III CRC,22%
same,response rates,advanced CRC,10 to 15%

# Reference: patent publication US20070270488A1, “Treatment and Assays” (The Queen's University of Belfast, priority 2004, published 2007)
